Test results as given in PMC6949113, “Preclinical evaluation of AT-527, a novel guanosine nucleotide prodrug with potent, pan-genotypic activity against hepatitis C virus” (PLoS ONE, 2020).
Where two headings read alike, the source gives them in different places.

Key:
[1] = test system: COX-1 protein in PC3 cells; experiment: Mitobiogenesis toxicity assay, COX-1; assay type: cell-based, human; conditions: 5 days, read-out: Mitogenesis IC50 COX-1
Experimental: (§1) Mitobiogenesis toxicity assay. […] One plate was used to measure cell viability by XTT staining. Cells in the remaining two plates were fixed with 4% paraformaldehyde for 20 min, washed thrice with DPBS, and 0.5% acetic acid added for 5 min to block endogenous alkaline phosphatase activity. Nuclear DNA encoded Complex II SDH-A mitochondrial protein and mitochondrial encoded Complex IV COX-1 protein were measured spectrophotometrically using the Abcam Mitobiogenesis ELISA kit (Cambridge, UK) per the manufacturer’s instructions.

K562 cells [2] = experiment: K562 cytotoxicity (XTT, 3 days); assay type: cell-based, human
Experimental: (§2) Mitochondrial toxicity assay. K562 leukemia cells (ATCC, CCL-243) seeded in 96-well plates (1x10^5 cells/well) were incubated in triplicate with test or positive control compounds in RPMI containing glucose, 10% FBS and 2 mM L-glutamine. […] Viability was compared with untreated cells to determine TC50 values. Separately, K562 cells were incubated in triplicate with test compounds in glucose-free RPMI supplemented with 10 mM galactose. Test compounds diluted in RPMI containing glucose were evaluated in parallel.

PC3 cells = experiment: PC3 cytotoxicity (XTT, 5 days); assay type: cell-based, human
Experimental: as §1

[3] = test system: SDH-A protein in PC3 cells; experiment: Mitobiogenesis toxicity assay, SDH-A; assay type: cell-based, human; conditions: 5 days, read-out: Mitogenesis IC50 SDH-A
Experimental: as §1

K562 cells [4] = experiment: Mitochondrial toxicity assay (Mitochondrial ToxGlo, glucose/galactose); assay type: cell-based, human
Experimental: as §2

[5] = Intracellular metabolism in mouse hepatocytes; assay type: in vitro ADME, mouse (CD1); conditions: low to undetectable
Experimental: (§3) Hepatocytes. […] Cryopreserved male mouse (CD1), and fresh male Beagle dog and male cynomolgus monkey hepatocytes were obtained from BioreclamationIVT (Baltimore, MD) and were similarly plated with Matrigel in 6- or 24-well plates and maintained overnight in InVitroGRO™HI medium with Torpedo™ antibiotic (BioreclamationIVT). The protocol described above for measuring AT-511 and its metabolites in Huh-7 cells was repeated with the five different hepatocytes. Untreated cells were collected at 24 h, and the protein content of the cell lysates were determined using a bicinchoninic acid protein assay kit to assess the number of cells in each incubation. Separately, plated human hepatocytes were incubated for 6 h with 100 μM AT-511, followed by washout periods of 0, 2, 6, 18 and 30 h.
(§4) S3 Protocol. LC-MS/MS analysis of AT-511 and metabolites in cultured cells. The supernatant extracts of each hepatocyte and Huh-7 cell incubation were separately analyzed by four different LC-MS/MS methods for quantitation of phosphoramidates, nucleosides, monophosphates, and triphosphates (methods 1, 2, 3 and 4, respectively), using synthetic reference standards of actually and potentially present compounds and using structurally related analogs as internal standards. Briefly, a Luna PFP (2), 5 µm, 100 x 4.6 mm column and an AB Sciex API-6500 mass spectrometer (ESI positive ion, MRM mode) were used for methods 1-3 and an XBridge Oligonucleotide, BEH C18, 2.5 µm, 50 x 2.1 mm column and a Thermo QE Plus mass spectrometer (electrospray, negative ion mode) were used for method 4. For methods 1 and 2, mobile phases A (10 mM ammonium acetate in water) and B (acetonitrile:methanol, 1:1, v/v) were used to elute samples (5 µL) at 1 mL/min with 15% B for 1.5 min followed by a linear gradient to 75% B over 1 min (method 1) or with 54% B for 1.3 min followed by a linear gradient to 90% B over 1.2 min. Method 3 was the same except mobile phase A was 0.3% acetic acid in water, […] and samples were eluted with 3% B for 3 min followed by a linear gradient to 55% B over 1.2 min. For method 4, mobile phase A (3 mM ammonium formate with 10 mM dimethylhexylamine (DMHA) in water) and mobile phase B (3 mM ammonium formate with 10 mM DMHA in acetonitrile:water, 1:1, v/v) were used to elute samples at 0.4 mL/min with 0% B for 1.5 min followed by a linear gradient to 100% B over 2 min and ending with an isocratic elution for 0.5 min at 100% B.

[6] = Intracellular metabolism in dog hepatocytes; assay type: in vitro ADME, Beagle dog; conditions: low to undetectable
Experimental: as §3, §4

[7] = Intracellular metabolism in human hepatocytes; assay type: in vitro ADME; conditions: human hepatocytes; low to undetectable
Experimental: as §3, §4

Monkey PK study, plasma = assay type: in vivo, cynomolgus monkey; conditions: for plasma concentration: male cynomolgus monkeys; for AUC(0-t) / Cmax / MRT last / Tmax: male, cynomolgus, cynomolgus monkey, in vivo, po
From the text: Monkey PK study. Male non-naïve cynomolgus monkeys were obtained from Hainan Jingang Laboratory Animal Co., Ltd. (Hainan, China), group housed during the 5-day acclimation period or individually housed during the study in stainless steel mesh cages, provided ad libitum access to RO water, fed twice daily (~120 g Certified Monkey Diet daily; Beijing Vital Keao Feed Co., Ltd., Beijing, China) and given daily treats of fresh fruit. Additional environmental enrichment included classical music and cartoons. Three groups of 5 monkeys each were administered 30, 100 or 300 mg/kg AT-527 as a powder filled in empty porcine hard gelatin capsules (size 0). The monkeys were fasted overnight prior to dosing and fed 4 h after dosing. Three dosages were selected to provide assessments of dose proportionality, the top two representing potential doses for a repeated oral dose toxicity study in monkeys, and the lowest predicted to be more therapeutically relevant. A pill gun was used to place the capsule beyond the root of the animals’ tongues and their mouths were held loosely closed for approximately 30 sec to allow them to move the jaw and swallow the capsule. Immediately following capsule administration, 20 mL of water was given by mouth and then the mouth was opened to ensure the capsule was swallowed. Blood samples (~0.6 mL) were collected up to 72 h from three animals per dose group, and up to 4 h from the remaining two animals in each group, at the same time points described for rats. […] Blood samples were collected with a syringe from a peripheral blood vessel from restrained, non-sedated animals, immediately transferred to pre-chilled tubes containing ~1 mg K2EDTA•2H20 and 20 μL of 5 mM dichlorvos solution, mixed and placed on ice until plasma was prepared by centrifugation as described for rats. Immediately after centrifugation, plasma samples were extracted with 4 volumes ISS2, and the supernatants were clarified by centrifugation (12,000 rpm, 10 min, 4°C) and stored at ≤ -60°C until analyzed by LC-MS/MS as described below. After the 4-hr blood collection, two monkeys per dose group were anesthetized with intravenous injection of pentobarbital sodium (60 mg/kg) and then euthanized as described for rats. […] All analytes were quantitated by LC-MS/MS as described below.
LC-MS/MS analysis of rat and monkey plasma and tissue homogenate supernatants. For the analysis of AT-511 in rat plasma, aliquots were extracted with 10 volumes ISS2. The supernatants were clarified by centrifugation (4000 rpm for 10 min at 4°C) and 3 μL samples were injected onto an Acuity BEH C18 1.7 μm, 2.1 × 50 mm column and a Sciex API 4000 mass spectrometer (ESI positive ion, MRM mode). Mobile phases A (0.025% formic acid (FA) and 1 mM ammonium acetate (AA) in 5% ACN in water) and B (0.025% FA and 1 mM AA in 95% ACN in water) were used to elute samples (3 μL) at 0.6 mL/min with 10% B for 0.3 min followed by linear gradients to 60% B over 0.6 min and to 90% B over 0.2 min, and ending with 90% B for 0.4 min.
PK data analysis. […] The linear/log trapezoidal rule was applied in obtaining the PK parameters.

[8] = Rat pharmacokinetic study, plasma; assay type: in vivo, Sprague-Dawley rat; conditions: for plasma concentration, individual rats: AT-527 500 mg/kg oral, male 1-3, female 7-9, BQL: <0.0017 AT-511, <0.0022 M1, <0.0032 AT-273, M4
[9] = Homo sapiens, K562, 2 h, read-out: MF (Gal) IC50, mitochondrial function
[10] = Homo sapiens, K562, glucose-free galactose medium, 2 h, measure of necrosis, read-out: MI (Gal) IC50, cell membrane integrity
[11] = both sexes, Sprague-Dawley, rat, in vivo, po, 500 mg/kg
[12] = K562 cells, glucose medium, 3 days, XTT
[13] = K562, glucose-free galactose medium, 2 h, inhibition of cellular ATP levels, read-out: MF (Gal) IC50, mitochondrial function
[14] = K562, glucose-free galactose medium, 2 h, measure of necrosis, read-out: MI (Gal) IC50, cell membrane integrity

SMILES: O=C(N[C@H](CO)[C@H](O)c1ccc([N+](=O)[O-])cc1)C(Cl)Cl [Chloramphenicol]
- IC50 ([1]; Homo sapiens, PC-3, 120 h): 95.3 µM
- Cytotoxicity TC50 (K562 cells [2]; human, 3 days): 50.9 µM
- Cytotoxicity TC50 (PC3 cells; human, 5 days): >100 µM
- IC50 ([3]; Homo sapiens, PC-3, 120 h): > 100 µM
- IC50 (K562 cells [4]; [9]): > 100 µM
- IC50 (K562 cells [4]; [10]): > 100 µM

SMILES: CNc1nc(N)nc2c1ncn2[C@@H]1O[C@H](CO)[C@@H](O)[C@@]1(C)F [M4]
- intracellular levels of nucleoside metabolites [5]: < 10 pmol/10^6 cells
- intracellular levels of nucleoside metabolites [6]: < 10 pmol/10^6 cells
- intracellular levels of nucleoside metabolites [7]: < 10 pmol/10^6 cells
- plasma concentration (Monkey PK study, plasma; single oral AT-527 100 mg/kg, 0.500 h, monkey 1): BQL
- plasma concentration (Monkey PK study, plasma; single oral AT-527 100 mg/kg, 72.0 h, monkey 2): BQL
- plasma concentration (Monkey PK study, plasma; single oral AT-527 300 mg/kg, 0.500 h, monkey 1): BQL
- plasma concentration (Monkey PK study, plasma; single oral AT-527 300 mg/kg, 0.500 h, monkey 2): BQL
- plasma concentration (Monkey PK study, plasma; single oral AT-527 300 mg/kg, 0.500 h, monkey 3): BQL
- plasma concentration (Monkey PK study, plasma; single oral AT-527 300 mg/kg, 1.00 h, monkey 1): BQL
- plasma concentration (Monkey PK study, plasma; single oral AT-527 300 mg/kg, 72.0 h, monkey 3): BQL
- AUC(0-t) (Monkey PK study, plasma; 30 mg/kg): 18.2 ± 1.7 µM·h
- Cmax (Monkey PK study, plasma; 30 mg/kg): 670 ± 140 nM
- MRT last (Monkey PK study, plasma; 30 mg/kg): 22.4 ± 2.4 h
- Tmax (Monkey PK study, plasma; 30 mg/kg): 14.7 ± 8.1 h
- AUC(0-t) (Monkey PK study, plasma; 100 mg/kg): 39.2 ± 15 µM·h
- Cmax (Monkey PK study, plasma; 100 mg/kg): 1300 ± 490 nM
- MRT last (Monkey PK study, plasma; 100 mg/kg): 22.3 ± 4.1 h
- Tmax (Monkey PK study, plasma; 100 mg/kg): 15.3 ± 7.6 h
- AUC(0-t) (Monkey PK study, plasma; 300 mg/kg): 53.9 ± 31.7 µM·h
- Cmax (Monkey PK study, plasma; 300 mg/kg): 1660 ± 490 nM
- MRT last (Monkey PK study, plasma; 300 mg/kg): 26.6 ± 9.6 h
- Tmax (Monkey PK study, plasma; 300 mg/kg): 17.3 ± 11.5 h
- plasma concentration, individual rats ([8]; 48.0 h): BQL
- plasma concentration, individual rats ([8]; 72.0 h): BQL
- AUC(0-t) [8, 11]: 207 ± 56.1 µM·h
- Cmax [8, 11]: 28800 ± 8500 nM
- MRT last [8, 11]: 6.41 ± 1.06 h

SMILES: C[C@@H]1CC[C@@]2(OC1)O[C@H]1[C@@H](O)[C@H]3[C@@H]4CC[C@H]5C[C@@H](O[C@@H]6O[C@H](CO)[C@H](O[C@@H]7O[C@H](CO)[C@@H](O)[C@H](O[C@@H]8OC[C@@H](O)[C@H](O)[C@H]8O)[C@H]7O[C@@H]7O[C@H](CO)[C@H](O)[C@H](O[C@@H]8O[C@H](CO)[C@@H](O)[C@H](O)[C@H]8O)[C@H]7O)[C@H](O)[C@H]6O)[C@H](O)C[C@]5(C)[C@H]4CC[C@]3(C)[C@H]1[C@@H]2C [Digitonin]
- IC50 ([1]; Homo sapiens, PC-3, 120 h): 32.6 µM
- Cytotoxicity TC50 (K562 cells [2]; [12]): 8.1 µM
- Cytotoxicity TC50 (PC3 cells; PC3 cells, 5 days, XTT): 27.2 µM
- IC50 ([3]; Homo sapiens, PC-3, 120 h): 40.7 µM
- IC50 (K562 cells [4]; [9]): 27.9 µM
- IC50 (K562 cells [4]; [10]): 31.9 µM

SMILES: N#CC(C#N)=NNc1cccc(Cl)c1 [CCCP]
- IC50 [1]: 15.1 µM
- Cytotoxicity TC50 (K562 cells [2]; [12]): 8.8 µM
- Cytotoxicity TC50 (PC3 cells; PC3 cells, 5 days, XTT): 17.7 µM
- IC50 [3]: 13.5 µM
- IC50 (K562 cells [4]; [13]): < 0.6 µM
- IC50 (K562 cells [4]; [14]): 7 µM

SMILES: Nc1ccn([C@H]2CC[C@@H](CO)O2)c(=O)n1 [ddC]
- IC50 [1]: 1.1 µM
- Cytotoxicity TC50 (K562 cells [2]): >20 µM
- Cytotoxicity TC50 (PC3 cells): >20 µM
- IC50 [3]: > 20 µM
- IC50 (K562 cells [4]; [13]): > 20 µM
- IC50 (K562 cells [4]; [14]): > 20 µM
